Source: patent US4863925A, “Cyclohexanedione derivative for hepatic disorders and a process for producing the same” (Nihon Nohyaku Co., Ltd., priority 1986, dated 1989)

Tested on: hepatic disorder caused by carbon tetrachloride
Assay: Effect of suppressing hepatic disorder caused by carbon tetrachloride (Test Example 1)
Format: in vivo, mice (dd-strain, male)
Parameters: key to Liver injury index: 0 = healthy, 2 = slight, 4 = evident injury, 6 = serious injury
Settings: 30 mg/kg p.o., 6 h before CCl4 0.05 ml/kg p.o., 24 h after CCl4, mean of five mice; for Liver injury index: 0 healthy, 2 slightly affected, 4 evidently observed injury, 6 serious injury; for P-GPT (plasma glutamic pyruvic transaminase activity): Reitman-Frankel, 2,000 or higher calculated as 2,000
Experimental: Effect of suppressing hepatic disorder caused by carbon tetrachloride. […] The animals were sacrificed 24 hours after the administration of carbon tetrachloride, and the extent of liver injury was examined. On the other hand, blood was collected from the animal at the time of the sacrifice, and centrifuged to obtain plasma. The plasma glutamic pyruvic transminase (GPT) activity was determined according to the method of Reitman-Frankel. The activity was expressed in terms of Karmen Units (K.U.). The conditions of the liver were expressed in terms of liver injury index as follows. |Liver injury index | Condition of liver |0 Healthy liver |2 Slightly affected |4 Evidently observed injury |6 Serious injury Mice were used in groups of five of test were represented by the mean value. When the GPT activity was 2,000 units or higher, or further determination was made, the activity was calculated as 2,000 units for reasons of convenience.

For COc1ccc(C2CC(=O)C(=C3SC4C(S3)N(C)CCN4C)C(=O)C2)cc1OC (centres unmarked) [compound 65], the Liver injury index was 1.6 and the “P-GPT (plasma glutamic pyruvic transaminase activity)” value (shortened to “P-GPT”) was 347 K.U.
For COc1ccc(C2CC(=O)C(=C3SC4NCCNC4(C)S3)C(=O)C2)cc1 (centres unmarked) [compound 92], the Liver injury index was 0.4 and the “P-GPT” value was 15 K.U.
In the case of CCOc1ccc(C2CC(=O)C(=C3SC4N(C)CCN(C)C4(C)S3)C(=O)C2)cc1 (centres unmarked) [compound 63], the Liver injury index is reported as 0 and the “P-GPT” value is reported as 15 K.U.
With COc1ccccc1C1CC(=O)C(=C2SC3C(S2)N(C)CCN3C)C(=O)C1 (centres unmarked) [compound 51] the Liver injury index was 0 and the “P-GPT” value was 81 K.U.
CCN1CCN(CC)C2SC(=C3C(=O)CC(C)(C)CC3=O)SC21 (centres unmarked) [compound 6] was tested, and the Liver injury index was 0 and the “P-GPT” value was 19 K.U.
For CCCN1CCN(CCC)C2SC(=C3C(=O)CC(c4ccc(OC)cc4)CC3=O)SC21 (centres unmarked) [compound 57], the Liver injury index was 0.2 and the “P-GPT” value was 142 K.U.
CCCN1CCN(CCC)C2SC(=C3C(=O)CCCC3=O)SC21 (centres unmarked) [compound 10] was tested, and the Liver injury index was 0 and the “P-GPT” value was 41 K.U.
In the case of C=CCN1CCN(CC=C)C2(C)SC(=C3C(=O)CC(C)(C)CC3=O)SC12 (centres unmarked) [compound 106], the Liver injury index is reported as 1.2 and the “P-GPT” value is reported as 242 K.U.
In the case of CCc1ccc(C2CC(=O)C(=C3SC4C(S3)N(C)CCN4C)C(=O)C2)cc1 (centres unmarked) [compound 48], the Liver injury index is reported as 0.3 and the “P-GPT” value is reported as 18 K.U.
For CN1CCN(C)C2(C)SC(=C3C(=O)CC(C)(C)CC3=O)SC12 (centres unmarked) [compound 12, 2-[1,2,5-trimethyl-2,5-diaza-7,9-dithiabicyclo(4.3.0)-nonane-8-ylidene]-5,5-dimethyl-1,3-cyclohexanedione], the Liver injury index was 0.4 and the “P-GPT” value was 33 K.U.
For CCOC(=O)C1C(=O)C(=C2SC3C(S2)N(C)CCN3C)C(=O)CC1c1ccc(C)cc1 (centres unmarked) [compound 102], the Liver injury index was 1.5 and the “P-GPT” value was 319 K.U.
For Cc1ccc(C2CC(=O)C(=C3SC4N(C)CCN(C)C4(C)S3)C(=O)C2)cc1 (centres unmarked) [compound 47], the Liver injury index was 0 and the “P-GPT” value was 24 K.U.
For CN1CCNC2SC(=C3C(=O)CC(c4ccco4)CC3=O)SC21 (centres unmarked) [compound 108], the Liver injury index was 1.0 and the “P-GPT” value was 24 K.U.
CN1CCNC2SC(=C3C(=O)CC(c4cccs4)CC3=O)SC21 (centres unmarked) [compound 109] was tested, and the Liver injury index was 0 and the “P-GPT” value was 17 K.U.
CN1CCN(C)C2SC(=C3C(=O)CC(c4cccs4)CC3=O)SC21 (centres unmarked) [compound 82, 2-[2,5-dimethyl-2,5-diaza-7,9-dithiabicyclo-(4.3.0)-nonane-8-ylidene]-5-(2-thienyl)-1,3-cyclo hexanedione] was tested, and the Liver injury index was 0.3 and the “P-GPT” value was 16 K.U.
CCOC(=O)C1C(=O)C(=C2SC3C(S2)N(C)CCN3C)C(=O)CC1c1ccc(OC)cc1 (centres unmarked) [compound 103] was tested, and the Liver injury index was 1.0 and the “P-GPT” value was 18 K.U.
With CC1CC(=O)C(=C2SC3C(S2)N(C)CCN3C)C(=O)C1 (centres unmarked) [compound 18] the Liver injury index was 1.2 and the “P-GPT” value was 22 K.U.
In the case of Cc1ccccc1C1CC(=O)C(=C2SC3C(S2)N(C)CCN3C)C(=O)C1 (centres unmarked) [compound 41], the Liver injury index is reported as 0.4 and the “P-GPT” value is reported as 213 K.U.
In the case of CN1CCN(C)C2SC(=C3C(=O)CC(C)(C)CC3=O)SC21 (centres unmarked) [Compound No. 4], the Liver injury index is reported as 0 and the “P-GPT” value is reported as 11 K.U.
In the case of CCOc1ccc(C2CC(=O)C(=C3SC4C(S3)N(CC)CCN4CC)C(=O)C2)cc1 (centres unmarked) [compound 61], the Liver injury index is reported as 1.5 and the “P-GPT” value is reported as 494 K.U.
With CCOC(=O)C1C(=O)C(=C2SC3C(S2)N(C)CCN3C)C(=O)CC1c1ccccc1Cl (centres unmarked) [compound 104] the Liver injury index was 1.7 and the “P-GPT” value was 345 K.U.
In the case of CN1CCN(C)C2SC(=C3C(=O)CC(c4ccccc4)CC3=O)SC21 (centres unmarked) [compound 26, 2-[2,5-dimethyl-2,5-diaza-7,9-dithiabicyclo(4,3, 0)-nonane-8-ylidene]-5-phenyl-1,3-cyclohexanedione], the Liver injury index is reported as 0 and the “P-GPT” value is reported as 12 K.U.
For CN1CCN(C)C2SC(=C3C(=O)CCCC3=O)SC21 (centres unmarked) [compound 1], the Liver injury index was 0.2 and the “P-GPT” value was 14 K.U.
In the case of CN1CCN(C)C2SC(=C3C(=O)CC(c4ccccc4Cl)CC3=O)SC21 (centres unmarked) [compound 32], the Liver injury index is reported as 0.3 and the “P-GPT” value is reported as 22 K.U.
With CN1CCNC2SC(=C3C(=O)CC(c4ccccc4Cl)CC3=O)SC21 (centres unmarked) [compound 121] the Liver injury index was 0 and the “P-GPT” value was 20 K.U.
CN1CCN(C)C2(C)SC(=C3C(=O)CCCC3=O)SC12 (centres unmarked) [compound 11] was tested, and the Liver injury index was 0.5 and the “P-GPT” value was 16 K.U.
In the case of CN1CCN(C)C2SC(=C3C(=O)CC(C4CCCCC4)CC3=O)SC21 (centres unmarked) [compound 80], the Liver injury index is reported as 1.0 and the “P-GPT” value is reported as 405 K.U.
In the case of Cc1ccc(C2CC(=O)C(=C3SC4C(S3)N(C)CCN4C)C(=O)C2)cc1 (centres unmarked) [Compound No. 43], the Liver injury index is reported as 0.2 and the “P-GPT” value is reported as 24 K.U.
With CCCN1CCN(CCC)C2SC(=C3C(=O)CC(c4ccccc4)C(C(=O)OCC)C3=O)SC21 (centres unmarked) [compound 114] the Liver injury index was 2.2 and the “P-GPT” value was 26 K.U.
CCOC(=O)C1C(=O)C(=C2SC3C(S2)N(C)CCN3C)C(=O)CC1c1ccc(OCC)cc1 (centres unmarked) [compound 115] was tested, and the Liver injury index was 0 and the “P-GPT” value was 39 K.U.
For COc1ccc(C2CC(=O)C(=C3SC4N(C)CCN(C)C4(C)S3)C(=O)C2)cc1 (centres unmarked) [compound 59], the Liver injury index was 0.1 and the “P-GPT” value was 16 K.U.
With CCCN1CCN(CCC)C2SC(=C3C(=O)CC(C)(C)CC3=O)SC21 (centres unmarked) [Compound No. 7] the Liver injury index was 0 and the “P-GPT” value was 16 K.U.
For CCN1CCN(CC)C2SC(=C3C(=O)CC(c4ccc(OC)cc4)CC3=O)SC21 (centres unmarked) [compound 56], the Liver injury index was 2.5 and the “P-GPT” value was 50 K.U.
CN1CCN(C)C2SC(=C3C(=O)CC(c4ccco4)CC3=O)SC21 (centres unmarked) [Compound No. 79] was tested, and the Liver injury index was 0 and the “P-GPT” value was 30 K.U.
In the case of CCC(C)C1CC(=O)C(=C2SC3C(S2)N(C)CCN3C)C(=O)C1 (centres unmarked) [compound 21], the Liver injury index is reported as 0.1 and the “P-GPT” value is reported as 23 K.U.
In the case of CCOc1ccc(C2CC(=O)C(=C3SC4C(S3)N(C)CCN4C)C(=O)C2)cc1 (centres unmarked) [compound 60], the Liver injury index is reported as 0.1 and the “P-GPT” value is reported as 26 K.U.
COc1cccc(C2CC(=O)C(=C3SC4C(S3)N(C)CCN4C)C(=O)C2)c1 (centres unmarked) [compound 52] was tested, and the Liver injury index was 0.1 and the “P-GPT” value was 14 K.U.
With CN1CCN(C)C2(C)SC(=C3C(=O)CC(c4ccco4)CC3=O)SC12 (centres unmarked) [compound 90] the Liver injury index was 0 and the “P-GPT” value was 15 K.U.
For CN1CCN(C)C2(C)SC(=C3C(=O)CC(c4cccs4)CC3=O)SC12 (centres unmarked) [compound 105], the Liver injury index was 0 and the “P-GPT” value was 15 K.U.
For Cc1cccc(C2CC(=O)C(=C3SC4C(S3)N(C)CCN4C)C(=O)C2)c1 (centres unmarked) [compound 42], the Liver injury index was 0 and the “P-GPT” value was 14 K.U.
CCC1CCC(=O)C(=C2SC3C(S2)N(C)CCN3C)C1=O (centres unmarked) [compound 25] was tested, and the Liver injury index was 0.8 and the “P-GPT” value was 15 K.U.
Cc1ccc(C2CC(=O)C(=C3SC4NCC(C)NC4S3)C(=O)C2)cc1 (centres unmarked) [compound 78] was tested, and the Liver injury index was 0.2 and the “P-GPT” value was 18 K.U.
With CCCN1CCN(CCC)C2SC(=C3C(=O)CC(c4ccccc4)CC3=O)SC21 (centres unmarked) [compound 28] the Liver injury index was 0.2 and the “P-GPT” value was 39 K.U.
CN1CCN(C)C2SC(=C3C(=O)CC(c4ccc(F)cc4)CC3=O)SC21 (centres unmarked) [compound 36] was tested, and the Liver injury index was 1.5 and the “P-GPT” value was 268 K.U.
With COc1ccc(C2CC(=O)C(=C3SC4C(S3)N(C)CCN4C)C(=O)C2)cc1 (centres unmarked) [compound 122] the Liver injury index was 1.5 and the “P-GPT” value was 231 K.U.
For COc1ccc(C2CC(=O)C(=C3SC4NCCNC4S3)C(=O)C2)cc1 (centres unmarked) [Compound No. 53], the Liver injury index was 0.1 and the “P-GPT” value was 13 K.U.
With CC1CNC2SC(=C3C(=O)CC(C)(C)CC3=O)SC2N1 (centres unmarked) [compound 14, 2-[3-methyl-2,5-diaza-7,9-dithiabicyclo-(4.3.0)-nonane-8-ylidene]-5,5-dimethyl-1,3-cyclohexanedione] the Liver injury index was 0.4 and the “P-GPT” value was 18 K.U.
CC1(C)CC(=O)C(=C2SC3NCCNC3(C)S2)C(=O)C1 (centres unmarked) [compound 111] was tested, and the Liver injury index was 1.0 and the “P-GPT” value was 14 K.U.
In the case of CN1CCNC2SC(=C3C(=O)CC(C)(C)CC3=O)SC21.Cl.Cl (centres unmarked) [compound 118, 2-[2-methyl-2,5-diaza-7,9-dithiabicyclo-(4,3,0)-nonane-8-ylidene]-5,5-dimethyl-1,3-cyclohexanedione dihydrochloride salt], the Liver injury index is reported as 0 and the “P-GPT” value is reported as 32 K.U.
